Reference: patent US5175166A, “Muscarinic agonists” (The University of Toledo, priority 1991, dated 1992)
Where a name gives a salt, the structure may show the parent alone.

Assays:
[1] = tested on: muscarinic receptors linked to M1, M3, M5 receptors; test: PI Cortex: phosphoinositide turnover in the cortex (brain slices); format: cell-based, Male Long Evans rats; details: Rattus norvegicus, read-out: PI Cortex, maximal % response above baseline
Method: Male Long Evans rats (200-300 g) were decapitated and their brains were rapidly removed and dissected according to the method of Glowinski and Iversen. […] The slices were gently agitated at 37° C. in a shaking water bath for 45 min with three changes to buffer.
Immediately before each experiment, [^3 H] inositol was purified by drying under Nz and passing a portion through a 1-ml column of Dowex AGl-X8 (formate form) to remove contaminants. […] Aliquots (25 microliters) of tissue slices were pipetted into flat-bottomed Beckman-biovials (5-ml capacity) containing 0.3 mM [^3 H]-inositol (15 Ci/mmol) and 10 mM LiCl in 245 microliters of buffer. The vials were then gassed, capped and incubated at 37° C. in a shaking water bath for 30 min. At the end of 30 min, agonist (or buffer for the determination of basal levels) was then added (30 microliters), and the incubation continued for an additional 45 min. The 45 -min incubation period was selected on the basis of the time course of labeled inositol phosphates ([^3 H]-IP's) accumulation under these conditions. The incubations were stopped by the addition of 0.94 ml of CHCl3 /MeOH (1:2, V/V) followed by 0.31 ml of CHCl3 and 0.31 ml of H2 O. The samples were mixed with vigorous shaking and spun at 1000×g for 10 min to separate organic and aqueous phases. Aliquots (750 microliter) of the upper aqueous phase were removed for determination of [^3 H]-IP's. In some cases 200 ml aliquots of the organic phase were removed, dried overnight and counted in 5 ml of scintillant (Amersham) for determination of [^3 H]-inositol incorporation into phospholipids.
Briefly, ACCELL QMA anion-exchange SEP-PAK's (Waters Associates) cartridges were converted into the formate form by washing first with 10 ml of a solution of 1.0 M-ammonium formate in 0.1 M-formic acid, followed by 20 ml of distilled water. The sample loading and solution delivery were performed by using disposable plastic syringes; an approximate flow rate of 10-15 ml/min was maintained. Total [^3 H]-IP's were determined by the "batch" method in which 750 microliter aliquots of the aqueous phase obtained as described above was diluted to 3 ml with distilled water. The entire amount was loaded on to the ACCELL QMA anion-exchange SEP-PAK cartridge. The cartridge was then washed with 10 ml of distilled water, followed by 5 mM-disodium tetraborate. Radiolabeled IP's were then eluted with 1 ml of 0.6 M-ammonium formate/0.06 M formic acid/5 mM-disodium tetraborate (pH 4.75) and 0.50 ml of this eluate was counted in 5 ml of aqueous counting scintillant.

muscarinic receptors [2] = test: Binding, competition with 3H-oxotremorine M (3H-OXO-M), agonist binding (rat brain membranes); details: 3 nM 3H-oxotremorine M, 15 minutes room temperature, mean of three experiments
Method: (§1) Other binding was determined indirectly by the ability of compounds to compete with 1 nM ^3 H-pirenzepine (^3 H--PZ), or 3 nM ^3 H-oxotremorine M (^3 H--OXO--M) in a suspension of brain membranes. Each sample contained approximately 0.1 mg/ml protein for ^3 H--OXO--M in 20 mM Tris-Cl buffer with 1 mM MnCl2 and varying concentrations of compound in a final volume of […]. Samples were incubated 1 hr. for ^3 H--PZ, and 15 minutes for ^3 H--OXO--M at room temperature and then filtered through glass fiber filters using a Brandell cell harvester adapted for receptor binding work and the filters were washed twice with two 5-ml portions of cold buffer. Nonspecific binding was evaluated by the inclusion of excess atropine in a separate set of samples. IC50 values were determined from Hill plots of the inhibition data and are reported as means of three independent experiments each performed in triplicate.
(§2) Rats were killed by cervical dislocation and their brains rapidly removed. Tissue was homogenized in 9 vol. (w/v) of a 40 mM sodium-potassium phosphate buffer solution (pH 7.4) buffer solution with a Brinkman Polytron homogenizer five times for 10 sec at 5 sec intervals. The crude homogenate was subjected to centrifugation for 10 min at 1000×g, the supernatant saved, and the pellet resuspended in 9 vol. (w/v) of homogenization buffer and spun for another 10 min at 1000×g. The supernatants were combined and spun again for 30 min at 17,500×g. The resultant pellet was resuspended by homogenization in a Teflon-glass homogenizer in 10 vol. of buffer, and washed by centrifugation at 17,500×g for 30 min. The final pellet was resuspended by hand homogenization with a Teflon and glass homogenizer in buffer. The suspension was then divided into several portions and stored at -70° C.
(§3) In the table, ^3 H-QNB indicates general binding to muscarinic receptors and the lower the number, the higher is the potency. ^3 H-PZ indicates binding to muscarinic receptors and a preference for M1 receptors involved in memory and cognition. The lower the number for ^3 H-PZ the higher the potencies; the same is true for ^3 H--OXO--M which indicates agonist binding. In general, the higher the ratio of the value for ^3 H--PZ to the value for ^3 H--OXO--M the better is the agonistic characteristic.

M1 receptors [3] = test: Phosphoinositide turnover in the hippocampus (brain slices); format: cell-based, Male Long Evans rats; details: Rattus norvegicus, read-out: Phosphoinositide turnover in the hippocampus, maximal % response above baseline; for activation at 100 µM / activation at 50 µM: hippocampus
Method: The slices were gently agitated at 37° C. in a shaking water bath for 45 min with three changes to buffer. […] The samples were mixed with vigorous shaking and spun at 1000×g for 10 min to separate organic and aqueous phases. […] Briefly, […] anion-exchange SEP-PAK's (Waters Associates) cartridges were converted into the formate form by washing first with 10 ml of a solution of 1.0 M-ammonium formate in 0.1 M-formic acid, followed by 20 ml of distilled water. The sample loading and solution delivery were performed by using disposable plastic syringes; an approximate flow rate of 10-15 ml/min was maintained. […] The entire amount was loaded on to the […] anion-exchange SEP-PAK cartridge. […] Phosphoinositide turnover in the hippocampus indicates a biological response in an area of the brain where M1 receptors predominate. Higher numbers indicate greater efficacy and selectivity at M1 receptors.

muscarinic receptors [4] = test: Binding to muscarinic receptors, competition with [3H]-QNB (rat brain membranes); details: for IC50: 50 pM [3H]-QNB, rat brain membranes, pH 7.4, 2.0 hr room temperature, mean of three experiments; for binding to muscarinic receptors (in words): qualitative statement
M1 receptors [5] = target: T1, M1 receptors (Rattus norvegicus, UniProt P08482); test: Binding, competition with 3H-pirenzepine (3H-PZ) (rat brain membranes); details: 1 nM 3H-pirenzepine, 1 hr room temperature, mean of three experiments
T1 sequence (P08482 1-460): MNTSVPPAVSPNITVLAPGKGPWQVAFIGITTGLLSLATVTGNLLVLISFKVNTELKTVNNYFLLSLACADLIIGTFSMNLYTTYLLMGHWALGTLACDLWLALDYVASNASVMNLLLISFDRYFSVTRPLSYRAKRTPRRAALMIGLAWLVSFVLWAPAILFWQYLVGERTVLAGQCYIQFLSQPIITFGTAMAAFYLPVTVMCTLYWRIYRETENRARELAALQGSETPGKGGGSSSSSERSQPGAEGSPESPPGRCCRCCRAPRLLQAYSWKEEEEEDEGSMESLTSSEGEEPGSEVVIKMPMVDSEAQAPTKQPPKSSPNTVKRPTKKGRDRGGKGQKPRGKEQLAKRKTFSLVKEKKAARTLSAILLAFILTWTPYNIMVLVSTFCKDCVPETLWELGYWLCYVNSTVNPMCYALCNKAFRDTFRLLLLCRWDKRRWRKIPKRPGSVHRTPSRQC
Method: as §1, §2, §3

muscarinic receptors [6] = test: Phosphoinositide (PI) response / inositol phosphate formation in brain slices (region not stated); format: cell-based, Male Long Evans rats; details: qualitative statement
Method: The slices were gently agitated at 37° C. in a shaking water bath for 45 min with three changes to buffer.
The sample loading and solution delivery were performed by using disposable plastic syringes; an approximate flow rate of 10-15 ml/min was maintained.

SMILES | activation at 100 µM [1] [%] | IC50 (muscarinic receptors [2]) [µM] | activation at 1000 µM (M1 receptors [3]) [%] | IC50 (muscarinic receptors [4]) [µM] | IC50 (M1 receptors [5]) [µM] | activation at 100 µM (M1 receptors [3]) [%] | PI response (in words) (muscarinic receptors [6]) | binding to muscarinic receptors (in words) (muscarinic receptors [4]) | activation at 1000 µM ([1]; dose 1 mM) [%] | activation at 50 µM (M1 receptors [3]) [%]
COC(=O)C1CN=CNC1 (centres unmarked) [Example 1, 1,4,5,6-Tetrahydro-5-methoxycarbonylpyrimidine Hydrobromide] | 131 | 0.09 | 237 | – | – | – | – | – | – | –
CCOC(=O)C1CN=CNC1 (centres unmarked) [Example 2, 1,4,5,6-Tetrahydro-5-ethoxycarbonylpyrimidine Hydrochloride] | 150 | 0.16 | – | 1.9 | – | – | – | – | – | –
CCCOC(=O)C1CN=CNC1 (centres unmarked) [Example 3, n-Propyl 1,4,5,6-Tetrahydropyrimidine-5-carboxylate Hydrochloride] | 7.1 | 1.08 | – | 2.1 | 1.33 | – | – | – | – | –
CC(C)OC(=O)C1CN=CNC1 (centres unmarked) [Example 4, Isopropyl 1,4,5,6-Tetrahydropyrimidine-5-carboxylate Hydrochloride] | 7.2 | 1.76 | – | 3.5 | – | – | – | – | – | –
O=C(OCc1ccccc1)C1CN=CNC1 (centres unmarked) [Example 5, Benzyl 1,4,5,6-Tetrahydropyrimidine-5-carboxylate Hydrochloride] | 3.5 | 1.09 | – | ~1 | 1.27 | – | – | – | – | –
C#CCOC(=O)C1CN=CNC1 (centres unmarked) [Example 6, Propynyl 1,4,5,6-Tetrahydropyrimidine-5-carboxylate Hydrochloride] | 230 | – | – | 1.9 | – | – | – | – | – | –
Cc1noc(C2CN=CNC2)n1 (centres unmarked) [Example 9, 1,4,5,6-Tetrahydro-5-(3-methyl-1,2,4-oxadiazol-5-yl)pyrimidine trifluoroacetate] | 700 | 0.026 | – | 2 | – | 704 | – | – | – | –
CC(=O)OC1CN=CNC1.Cl (centres unmarked) [Example 10, 5-Acetoxy-1,4,5,6-tetrahydropyrimidine HCl] | – | 0.64 | – | 31.6 | 10 | 70 | efficacious with respect to the PI response | acceptable binding data | – | –
COC(=O)C1=CNCN(C)C1 [Example 11, 1-Methyl-5-methoxycarbonyl-1,2,3,6-tetrahydropyrimidine HCl] | – | 2.4 | – | 25.1 | 15 | – | – | – | 182 | –
COC(=O)C1CCC(N)=NC1.Cl (centres unmarked) [Example 14, 2-Amino-5-methoxycarbonyl-3,4,5,6-tetrahydropyridine HCl] | 265 | 0.114 | – | 7.3 | 0.77 | – | unexpectedly superior PI response | – | – | –
COC(=O)C1CCCN=C1N (centres unmarked) [Example 15, 2-amino-3-methoxycarbonyl-3,4,5,6-tetrahydropyridine HCl] | -5.5 | > 10 | – | 83 | 13 | – | – | – | – | –
COC(=O)C1CCN=C(N)C1 (centres unmarked) [Example 16, 2-Amino-4-methoxycarbonyl-3,4,5,6-tetrahydropyridine HCL] | 9 | – | – | 130 | – | – | – | – | – | –
COC(=O)C1CCCC(N)=N1 (centres unmarked) [Example 17, 2-Amino-6-methoxycarbonyl-3,4,5,6-tetrahydropyridine HCL] | 5.9 | > 10 | – | 130 | > 10 | – | – | – | – | –
CC(=O)OC1CN=C(C(F)(F)F)NC1.Cl (centres unmarked) [Example 18, 5-Acetoxy-2-trifluoromethyl-1,4,5,6-tetrahydropyrimidine HCl] | – | > 10 | – | 8.7 | > 10 | – | no PI response | – | – | 0
CC(=O)OC1CN=C(C)NC1 (centres unmarked) [Example 19, 2-methyl-5-acetoxy-1,4,5,6-tetrahydropyrimidine] | – | > 10 | – | 100 | > 10 | – | virtually no PI response | extremely poor binding to muscarinic receptors | – | 0
